According to US20010039258A1, “Active agent transport systems” (Emisphere Technologies, Inc., priority 1990, published 2001):
Read-outs that look alike come from different tables or passages of the source.

Assays:
α-interferon [1] = biological target: T1, α-interferon (Homo sapiens, UniProt P01563); test: Isothermal titration calorimetry of perturbant complexing with α-interferon; type: binding; details: 25° C.; for result of complexing with α-interferon at pH 3: 20 mM NaAc; for n (1), # of complexed perturbant molecules: curve fitting, multiple independent sites
T1 construct: purchased Schering Plough Corp
Procedure: Isothermal titration calorimetry of perturbant complexing with α-interferon was performed at 25° C. at two different pH's. The buffers used were 20 mM NaPhosphate for pH 7.2 and 20 mM NaAc for pH 3.0. α-interferon solution was dialyzed before the experiment to reach the appropriate pH. Dry perturbants were weighed and diluted in dialysate.
ITC was conducted on a MicroCal OMEGA titration calorimeter (MicroCal Inc.—Northampton, Mass.). Data points were collected every 2 seconds, without subsequent filtering. α-interferon solution placed in 1.3625 mL cell was titrated using a 250 μL syringe filled with concentrated perturbant solution. A certain amount of titrant was injected every 3-5 minutes for up to 55 injections.
A reference experiment to correct for the heat of mixing of two solutions, was performed identically except that the reaction cell was filled with buffer without active agent.
Analysis of the data was performed using the software developed at the Johns Hopkins University Biocalorimetry Center.
The titration at pH 7.2 included 53 injections of 2 μL of the perturbant of Example 30 (50 mg/mL=191.6 mM (MW 261)) and α-interferon (1.3 mg/mL=0.067 mM (MW 19400)).
The titration at pH 7.2 included two runs of […] each of 5 μL of perturbant (50 mg/mL=181 mM (FW 277)) and α-interferon (2.31 mg/mL=0.119 mM, (MW 19400)).
ITC was performed according to the method of Example 24 with 40 injections of 5 μL of the perturbant benzoyl para-amino phenylbutyric acid (7.5 mg/mL=24.59 mM, (FW 305)) and α-interferon (2.5 mg/mL=0.129 mM, (MW 19400)).

α-interferon [2] = biological target: T1, α-interferon; test: Perturbant binding DSC with α-interferon; details: α-interferon 0.64 mg/ml, pH 7.2
Procedure: Perturbant binding DSC was conducted using 20 mM NaPhosphate buffer at pH 7.2. Dry perturbant was weighed out to make perturbant stock solutions. α-interferon stock was diluted in the buffer. α-interferon solution was not dialyzed prior to experiments for the purpose of having the same active concentration for the whole set.
DSC thermograms were generated with α-interferon at a concentration of 0.64 mg/ml and a perturbant (phenylsulfonyl-para-aminobenzoic acid purified to >98% (as determined by reverse phase chromatography prior to generation of the spectra)) at perturbant concentrations of 5, 10, 25 and 100 mg/ml. DSC was conducted on a DASM-4 differential scanning calorimeter interfaced to an IBM PC for automatic collection of the data. The scanning rate was 60° C./h.
The method of Example 19 was followed substituting α-interferon without perturbant. Results are illustrated in Table 9 below and FIG. 10. […]

rhGH = rhGH (Homo sapiens, UniProt P01241); test: Isothermal titration calorimetry of rhGH with perturbants; type: binding; details: 30° C.
Procedure: The ability of rhGh to complex with various perturbants was assessed by ITC using a Microcal Omega titrator, usually equilibrated at 30° C. The sample cell of the calorimeter was filled with degassed rhGH (usually at 0.25 mM) prepared in 50 mM phosphate buffer, pH 7.5 or 4.0. The perturbant (cyclohexanoyl chloride modified L-tyrosin (a), salicyloyl modified L-phenylalanine (b), or phenylsulfonyl-para-amino benzoic acid (c)) was then placed in the dropping syringe at 1 mM (for pH 7.5) and 2.5 mM, (for pH 4.0). Twenty to twenty-five 10 μl injections were made into rapidly mixing (400 rpm) solution with 2 minute intervals between injections.
Initial concentration of perturbant placed in the calorimeter sample cell assumed a formula weight of 200 for each perturbant. The pH of each solution was checked after dissolution, but no adjustments of the pH were required. All experiments were performed at 30° C. Initial concentration of rhGh placed in the dropping syringe assumed a molecular weight of 20,000 for rhGh. The pH of each solution was checked after dissolution, but no adjustment of the pH was required.
The heats of reaction were determined by integration of the observed peaks. To correct for heat of mixing and dilution, a control experiment was also performed under identical conditions where aliquots of the test perturbant or rhGh were added to buffer solution only.

[3] = DSC of heparin, effect of ionic strength; type: physicochemical; details: pH 7.0
Procedure: (§1) Scanning calorimetry was performed using 5 mg 0.83 mM porcine insulin (MW 6,000) per mL in 50 mM phosphate buffer, pH 7.5. All thermograms were performed on a Microcal MC-2 scanning calorimeter equipped with the DA2 data acquisition system operated in the upscale mode at 1° C./min (up to 90° C.), and data points were collected at 20 second intervals. All scans were initiated at least 20 degrees below the observed transitions for the active agent. All thermograms were corrected for baseline subtraction and normalized for the concentration of macromolecule. According to the methods of the Johns Hopkins Biocalorimetry Center, See, for example, Ramsay et al. Biochemistry (1990) 29:8677-8693; Schon et al. Biochemistry (1989) 28:5019-5024 (1990) 29: 781-788. […]
(§2) Thermograms were corrected by subtraction of a heparin 0.05M NaCl-phosphate buffer blank, but an individual blank was not used for each NaCl concentration.

[4] = DSC of heparin, effect of pH; type: physicochemical
Procedure: as §1, with “All” for “Scanning calorimetry was performed using 5 mg 0.83 mM porcine insulin (MW 6,000) per mL in 50 mM phosphate buffer, pH 7.5. All”
as §2

[5] = DSC of heparin, effect of guanidine hydrochloride; type: physicochemical
Procedure: Scanning calorimetry was performed using 5 mg 0.83 mM porcine insulin (MW 6,000) per mL in 50 mM phosphate buffer, pH 7.5. All thermograms were performed on a Microcal MC-2 scanning calorimeter equipped with the DA2 data acquisition system operated in the upscale mode at 1° C./min (up to 90° C.), and data points were collected at 20 second intervals. All scans were initiated at least 20 degrees below the observed transitions for the active agent. All thermograms were corrected for baseline subtraction and normalized for the concentration of macromolecule. According to the methods of the Johns Hopkins Biocalorimetry Center, See, for example, Ramsay et al. Biochemistry (1990) 29:8677-8693; Schon et al. Biochemistry (1989) 28:5019-5024 (1990) 29: 781-788.
DSC thermograms of heparin at pH 5.0 were conducted according to the method of Example 9 using pH, GuHCl, and ionic strength as perturbants.
as §2

T1 sequence (P01563 24-188): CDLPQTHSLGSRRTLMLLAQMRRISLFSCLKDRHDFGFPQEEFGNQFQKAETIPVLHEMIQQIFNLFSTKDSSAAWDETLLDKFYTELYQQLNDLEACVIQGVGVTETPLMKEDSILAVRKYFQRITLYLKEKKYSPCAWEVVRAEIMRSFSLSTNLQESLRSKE
Chain of rhGH (P01241 27-217): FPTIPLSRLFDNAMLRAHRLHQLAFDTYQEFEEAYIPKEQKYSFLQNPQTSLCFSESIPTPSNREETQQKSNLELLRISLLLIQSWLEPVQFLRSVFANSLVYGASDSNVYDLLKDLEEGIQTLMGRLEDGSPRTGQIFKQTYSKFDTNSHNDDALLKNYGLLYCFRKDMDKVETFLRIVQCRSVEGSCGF

O=C(NC(C(=O)O)c1ccccc1)C1CCCCC1 (stereo not drawn) [perturbant of Example 22, cyclohexanoyl phenylglycine]
result of complexing with α-interferon at pH 3 (α-interferon [1]): negative enthalpy
ΔH (1) (α-interferon [1]; pH 7.2): 58.5932 cal/Mole perturbant
n (1), # of complexed perturbant molecules (α-interferon [1]; pH 7.2): 121.0354
Kd (α-interferon [1]; pH 7.2, read-out: binding constant (Kd)): ~1000 µM
Kd (α-interferon [1]; pH 7.2, read-out: log 10 Ka (1), Ka=association constant (converted)): 2990 µM
Tm of α-interferon (α-interferon [2]; perturbant 5 mg/ml): 63.00 °C
ΔH of α-interferon (α-interferon [2]; perturbant 5 mg/ml): 42.299 kcal/mol
Tm of α-interferon (α-interferon [2]; perturbant 10 mg/ml): 59.49 °C
ΔH of α-interferon (α-interferon [2]; perturbant 10 mg/ml): 43.058 kcal/mol
Tm of α-interferon (α-interferon [2]; perturbant 25 mg/ml): 52.79 °C
ΔH of α-interferon (α-interferon [2]; perturbant 25 mg/ml): 27.237 kcal/mol
ΔH of α-interferon (α-interferon [2]; perturbant 100 mg/ml): 0 kcal/mol

O=C(O)c1ccc(NS(=O)(=O)c2ccccc2)cc1 [perturbant of Example 19, phenylsulfonyl-para-aminobenzoic acid]
Kd (rhGH; pH 4.0): 0.0267 µM
ΔH (rhGH; pH 4.0): -1.2 kcal/mol
ΔS (rhGH; pH 4.0): −30.0 eu
Kd (rhGH; pH 7.5): 0.00111 µM
ΔH (rhGH; pH 7.5): +0.8 kcal/mol
ΔS (rhGH; pH 7.5): +44.0 eu
result of complexing with α-interferon at pH 3 (α-interferon [1]): precipitation of the complex out of the solution
log 10 Ka (1), Ka=association constant (α-interferon [1]; pH 7.2): 2.82
ΔH (1) (α-interferon [1]; pH 7.2): −114.587 cal/Mole perturbant
n (1), # of complexed perturbant molecules (α-interferon [1]; pH 7.2): 55.12
Tm of α-interferon (α-interferon [2]; perturbant 5 mg/ml): 64.37 °C
ΔH of α-interferon (α-interferon [2]; perturbant 5 mg/ml): 60.151 kcal/mol
Tm of α-interferon (α-interferon [2]; perturbant 10 mg/ml): 62.3 °C
ΔH of α-interferon (α-interferon [2]; perturbant 10 mg/ml): 53.161 kcal/mol
Tm of α-interferon (α-interferon [2]; perturbant 25 mg/ml): 58.15 °C
ΔH of α-interferon (α-interferon [2]; perturbant 25 mg/ml): 35.393 kcal/mol
Tm of α-interferon (α-interferon [2]; perturbant 100 mg/ml): 46.18 °C
ΔH of α-interferon (α-interferon [2]; perturbant 100 mg/ml): 5.4393 kcal/mol

cyclohexanoyl chloride modified L-tyrosine
Kd (rhGH; pH 4.0): 78.1 µM
ΔH (rhGH; pH 4.0): -1.5 kcal/mol
ΔS (rhGH; pH 4.0): −5.6 eu
Kd (rhGH; pH 7.5): 98.8 µM
ΔH (rhGH; pH 7.5): +1.4 kcal/mol
ΔS (rhGH; pH 7.5): +23.5 eu

Heparin
ΔH ([3]; 0.0M NaCl): 72.9 kcal/mol
ΔHvH ([3]; 0.0M NaCl): 136.4 kcal/mol
Tm (Cp, max) ([3]; 0.0M NaCl, 20 μg/ml): 47.1 °C
Tm (Cp, max) ([3]; 0.25M NaCl): 46.1 °C
ΔH ([3]; 0.25M NaCl): not present
Tm (Cp, max) ([3]; 0.50M NaCl): 41.6 °C
ΔH ([3]; 0.50M NaCl): not present
Tm (Cp, max) ([3]; 0.75M NaCl): 27.5 °C
ΔH ([3]; 0.75M NaCl): not present
Tm (Cp, max) ([3]; 1.0M NaCl): no transition observed
ΔH ([4]; pH 6.0): 232.1 kcal/mol
ΔHvH ([4]; pH 6.0): 13.8 kcal/mol
Tm (Cp, max) ([4]; pH 6.0, 20 μg/ml in 50 mM phosphate): 62.5 °C
Tm (Cp, max) ([4]; pH 6.5, (a) domain): 62.7 °C
ΔH ([4]; pH 6.5, (a) domain): 213.9 kcal/mol
Tm (Cp, max) ([4]; pH 6.5, (b) domain): 71.8 °C
ΔH ([4]; pH 6.5, (b) domain): 751.9 kcal/mol
ΔHvH ([4]; pH 6.5, printed in line (b)): 56.8 kcal/mol
Tm (Cp, max) ([4]; pH 7.0, (a) domain): 47.1 °C
ΔH ([4]; pH 7.0, (a) domain): 187.1 kcal/mol
Tm (Cp, max) ([4]; pH 7.0, (b) domain): 72.9 °C
ΔH ([4]; pH 7.0, (b) domain): 136.4 kcal/mol
ΔHvH ([4]; pH 7.0, printed in line (b)): 27.6 kcal/mol
Tm (Cp, max) ([4]; pH 7.5): 66.2 °C
ΔH ([4]; pH 7.5): 499.4 kcal/mol
ΔHvH ([4]; pH 7.5): 83.8 kcal/mol
Tm (Cp, max) ([5]; 0.5M GuHCl): 50.5 °C
ΔH ([5]; 0.5M GuHCl): 287.3 kcal/mol
ΔHvH ([5]; 0.5M GuHCl): 170.9 kcal/mol
Tm (Cp, max) ([5]; 1.0M GuHCl): 60.5 °C
ΔH ([5]; 1.0M GuHCl): 415.0 kcal/mol
ΔHvH ([5]; 1.0M GuHCl): 97.1 kcal/mol
ΔH ([5]; 1.5M GuHCl): 1716.5 kcal/mol
ΔHvH ([5]; 1.5M GuHCl): 24.3 kcal/mol
ΔH ([5]; 2.0M GuHCl): 2533.7 kcal/mol
ΔHvH ([5]; 2.0M GuHCl): 19.2 kcal/mol
ΔH ([5]; no GuHCl): 499.4 kcal/mol
ΔHvH ([5]; no GuHCl): 83.8 kcal/mol
Tm (Cp, max) ([5]; no GuHCl, 50 mM phosphate): 67.2 °C

O=C(N[C@@H](Cc1ccccc1)C(=O)O)c1ccccc1O [B, salicyloyl modified L-phenylalanine]
Kd (rhGH; pH 4.0): 0.00161 µM
ΔH (rhGH; pH 4.0): -35.6 kcal/mol
ΔS (rhGH; pH 4.0): −90.0 eu
Kd (rhGH; pH 7.5): 1.11 µM
ΔH (rhGH; pH 7.5): +2.1 kcal/mol
ΔS (rhGH; pH 7.5): +35.0 eu
